{"source": "patent US20230413825A1", "about": "“SHORT AND LONG TERM DIS[…] ALCOHOL AND ZINC PYRITHIONE” (CAO Group, Inc., priority 2020, published 2023)", "text": "The present invention also utilizes the salts of pyrithione, especially the zinc salt.", "note": "Read-outs that look alike come from different tables or passages of the source.", "data": [{"substance": "Zinc pyrithione", "values": [{"measurement": "solubility", "setting": "in solution in an admixture of alcohols and water", "value": "about 60 ppm"}, {"measurement": "solubility", "setting": "in water", "value": "about 8 ppm"}]}]}
